Data: the NIST ThermoML archive (doi:10.1021/je300102d)
± gives the expanded uncertainty stated by the source.

Experiment: xn = mol fraction of the nth substance listed
Conditions: 101 kPa, Liquid; for viscosity: Concentric cylinders viscometry; for mass density: Vibrating tube method

N [ammonia] + O
Conditions	mass density, x1 = 0.0268 [kg/m3]	mass density, x1 = 0.0505 [kg/m3]	mass density, x1 = 0.1124 [kg/m3]	mass density, x1 = 0.148 [kg/m3]	mass density, x1 = 0.3043 [kg/m3]	viscosity, x1 = 0.0111 [mPa·s]	viscosity, x1 = 0.0262 [mPa·s]	viscosity, x1 = 0.0279 [mPa·s]	viscosity, x1 = 0.1147 [mPa·s]	viscosity, x1 = 0.176 [mPa·s]
283.15 K	988.73 ± 0.2	979.82 ± 0.2	957.85 ± 0.2	944.97 ± 0.21	895.9 ± 0.22	1.313 ± 0.053	1.428 ± 0.058	1.352 ± 0.055	1.559 ± 0.063	1.713 ± 0.069
293.15 K	986.79 ± 0.2	977.5 ± 0.2	954.52 ± 0.2	941.01 ± 0.21	889.82 ± 0.22	1.025 ± 0.042	1.074 ± 0.043	1.046 ± 0.042	1.157 ± 0.047	1.289 ± 0.052
303.15 K	983.98 ± 0.2	974.43 ± 0.2	950.65 ± 0.2	936.67 ± 0.21	–	0.8106 ± 0.033	0.845 ± 0.034	0.8278 ± 0.034	0.9025 ± 0.037	0.9955 ± 0.04
313.15 K	980.32 ± 0.2	970.59 ± 0.2	946.14 ± 0.2	931.7 ± 0.21	–	0.672 ± 0.027	0.7124 ± 0.029	0.6922 ± 0.028	0.7653 ± 0.031	0.8467 ± 0.034
323.15 K	975.98 ± 0.2	966.09 ± 0.2	940.98 ± 0.2	926.12 ± 0.21	–	0.5645 ± 0.023	0.5945 ± 0.024	0.5795 ± 0.024	0.6297 ± 0.026	0.6829 ± 0.028

C1CNCCN1 [piperazine] + O
Conditions	mass density, x1 = 0.00181 [kg/m3]	mass density, x1 = 0.00367 [kg/m3]	mass density, x1 = 0.00741 [kg/m3]	mass density, x1 = 0.01119 [kg/m3]	mass density, x1 = 0.01938 [kg/m3]	viscosity, x1 = 0.000906 [mPa·s]	viscosity, x1 = 0.00182 [mPa·s]	viscosity, x1 = 0.00366 [mPa·s]	viscosity, x1 = 0.00553 [mPa·s]	viscosity, x1 = 0.00742 [mPa·s]
283.15 K	1000.15 ± 0.2	1000.51 ± 0.2	1001.34 ± 0.2	1002.24 ± 0.2	1004.7 ± 0.2	1.33 ± 0.054	1.362 ± 0.055	1.393 ± 0.056	1.462 ± 0.059	1.533 ± 0.062
293.15 K	998.63 ± 0.2	998.98 ± 0.2	999.75 ± 0.2	1000.58 ± 0.2	1002.52 ± 0.2	1.012 ± 0.041	1.043 ± 0.042	1.092 ± 0.044	1.119 ± 0.045	1.174 ± 0.048
303.15 K	996.1 ± 0.2	996.42 ± 0.2	997.15 ± 0.2	997.91 ± 0.2	999.69 ± 0.2	0.8241 ± 0.034	0.8339 ± 0.034	0.8791 ± 0.036	0.8894 ± 0.036	0.9414 ± 0.038
313.15 K	992.66 ± 0.2	992.99 ± 0.2	993.68 ± 0.2	994.37 ± 0.2	996.04 ± 0.2	0.6757 ± 0.028	0.6868 ± 0.028	0.7176 ± 0.029	0.7531 ± 0.031	0.78 ± 0.032
323.15 K	988.51 ± 0.2	988.81 ± 0.2	989.47 ± 0.2	990.14 ± 0.2	991.64 ± 0.2	0.5816 ± 0.024	0.5923 ± 0.024	0.621 ± 0.025	0.6448 ± 0.026	0.6604 ± 0.027

O [water] + C1CNCCN1
x2 = 0
Conditions	mass density [kg/m3]	viscosity [mPa·s]
283.15 K	999.7 ± 0.2	1.307 ± 0.053
293.15 K	–	1.002 ± 0.041
303.15 K	–	0.7977 ± 0.032
313.15 K	–	0.6532 ± 0.027
323.15 K	988.04 ± 0.2	0.547 ± 0.023

O [water] + N
x2 = 0
Conditions	mass density [kg/m3]	viscosity [mPa·s]
283.15 K	999.7 ± 0.2	1.307 ± 0.053
293.15 K	–	1.002 ± 0.041
303.15 K	–	0.7977 ± 0.032
313.15 K	–	0.6532 ± 0.027
323.15 K	988.04 ± 0.2	0.547 ± 0.023
